These results are taken from US20070066681A1, “Pharmaceutical composition for treating fatty liver or hepatic disease” (CHUGAI SEIYAKU KAUSHIKI KAISHA, priority 2003, published 2007).

Common to all, as to format: in vivo
For experiment [1], the system named is excess apoAI expressing mice fed with high fat diet. In words: Action of BO-653 on excess apoAI expressing mice fed with high fat diet (fatty liver and associated hepatic disease). The settings on record: for AST (serum) / Liver weight / Total cholesterol (serum): 0.6% BO-653 or 0.5% probucol in high fat diet, 37 weeks of feeding, mean ± standard error; for blood AST compared with high fat diet group (in words) / liver weight compared with high fat diet group (in words): drug-containing high fat diet vs high fat diet only, 37 weeks. The source says: The therapeutic activity of BO-653 against fatty liver and associated hepatic disease was investigated using excess apoAI expressing mice which were fed with a high fat diet to induce fatty liver and further develop hepatic diseases.
ApoAI, i.e., apolipoprotein AI, is an apolipoprotein constituting high density lipoproteins mainly responsible for blood lipid metabolism in rodents including mice. In mice expressing excess apoAI, blood cholesterol levels are originally high. Thus, even if they are fed with a high fat diet for causing the onset of fatty liver, increases in blood cholesterol are relatively small. Such mice are advantageous in that the influence of changes in blood cholesterol on the results of the test need not be considered in evaluating the therapeutic activity of BO-653 against fatty liver and associated hepatic disease.
(§1) Mice expressing excess apoAI (female, 10 to 11 weeks of age, purchased from Jackson Laboratories) were divided into 4 groups of N-animals. The animals of the respective groups were fed with a normal diet, a high fat diet, a 0.6% BO-653-containing high fat diet (hereinafter referred to as B+ high fat diet), and a 0.5% probucol-containing high fat diet (hereinafter referred to as P+ high fat diet).
(§2) The B+high fat diet and the P+ high fat diet were prepared by removing cellulose in amounts corresponding to 0.60% and 0.50%, respectively, from the high fat diet of the above composition, and adding the corresponding amounts of BO-653 and probucol, respectively, to the remaining composition. Probucol is a liposoluble antioxidant.
(§3) Serum was separated from the collected blood, and AST and total cholesterol in the serum were measured with an autoanalyzer (COBS FARAII ROCHE). The entire body of the animal subjected to the laparotomy and blood collection was perfused with physiological saline, and the weight of the liver was measured.

Experiment [2] relates to C57BL/6J mice fed with high fat diet. In words: Same high fat diet test in C57BL/6J mice expressing apolipoprotein AI normally. The conditions noted are these: B+ high fat diet (0.6% BO-653), only high fat diet: 275±31. As for the experimental part: as §1, §2, §3
(§4) The same tests were conducted using C57BL/6J mice (female, 6 weeks of age, purchased from CLEA Japan) expressing apolipoprotein AI normally, and apoAI deficiency mice (female, 10 to 11 weeks of age, purchased from Jackson Laboratories) expressing no apolipoprotein AI in contrast to the animals in the present Test Example.

Experiment [3] concerns apoAI deficiency mice fed with high fat diet. In words: Same high fat diet test in apoAI deficiency mice. The settings on record: B+ high fat diet (0.6% BO-653), only high fat diet: 159±10. On the procedure: as §1, §2, §3, §4
A further experiment deals with apoE deficiency mice. In words: Effect of BO-653 in apoE deficiency mice. As for the experimental part: Besides, the effect of BO-653 was tested using apoE deficiency mice. These mice are known as mice showing high blood total cholesterol levels even on a normal diet and, at the same time, show high blood AST even on a normal diet.

For the compound `CCCCCC1(CCCCC)Cc2c(cc(C(C)(C)C)c(O)c2C(C)(C)C)O1` [BO-653, 4,6-di-t-butyl-5-hydroxy-2,2-di-n-pentyl-2,3-dihydrobenzofuran], in experiment [1], the “AST (serum)” value was 96 ± 7 U/L, the Liver weight was 2789 ± 106 mg, the “Total cholesterol (serum)” value is reported as 353 ± 32 mg/dL and the “blood AST compared with high fat diet group (in words)” value was “greatly lower”. In experiment [1], the “liver weight compared with high fat diet group (in words)” value is “significantly less”. Further, the “suppression of AST leakage from liver cells, action relative to probucol” value in experiment [1] (decline in blood AST, B+ vs P+ high fat diet) is given as “several times as high as that of probucol”. In addition, in experiment [2], the “serum AST” value was 181±18. In addition, the “blood ASL” value in experiment [3] worked out at 85±8. For the same compound, in the experiment with apoE deficiency mice, the “blood AST” value was “lowered” and the “blood total cholesterol values” is given as “without involving changes”.

Take `CC(C)(Sc1cc(C(C)(C)C)c(O)c(C(C)(C)C)c1)Sc1cc(C(C)(C)C)c(O)c(C(C)(C)C)c1` [probucol, reference compound]: in experiment [1], the “AST (serum)” value worked out at 218 ± 18 U/L, the Liver weight is 2923 ± 185 mg, the “Total cholesterol (serum)” value is on record as 203 ± 10 mg/dL and the “blood AST compared with high fat diet group (in words)” value is “not as great as those in the B+ high fat diet group”. For the same compound, the “liver weight compared with high fat diet group (in words)” value in experiment [1] is listed as “not as great as those in the B+ high fat diet group”.
